Calls of active or inactive are those of the source. No cut-off for these calls is given here.

Test [1] has as its target T1, 14 kDa phosphohistidine phosphatase (Homo sapiens) (UniProt Q9NRX4).
T1 sequence (whole entry): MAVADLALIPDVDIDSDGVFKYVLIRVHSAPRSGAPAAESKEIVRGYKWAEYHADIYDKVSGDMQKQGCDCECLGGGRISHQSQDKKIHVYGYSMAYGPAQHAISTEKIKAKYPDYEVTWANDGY
The experiment in a line: Inhibition of human PHPT1 expressed in Escherichia coli BL21 (DE3) using pNPP as substrate assessed as Kinact by reciprocal analysis.

The target of test [2] is T2, 14 kDa phosphohistidine phosphatase (Homo sapiens, UniProt Q9NRX4).
T2 sequence (Q9NRX4 whole entry): T1 sequence (whole entry)
The test is described as follows: Inhibition of human PHPT1 expressed in Escherichia coli BL21 (DE3) using pNPP as substrate assessed as inhibition constant by reciprocal analysis.

The target of test [3] is T1, 14 kDa phosphohistidine phosphatase (Homo sapiens). The experiment in a line: Inhibition of human PHPT1 expressed in Escherichia coli BL21 (DE3) using pNPP as substrate assessed as Kinact/Ki by reciprocal analysis.
The species named for test [4] is Homo sapiens. The test is described as follows: Covalent binding affinity to human PHPT1 C69A mutant expressed in Escherichia coli BL21 (DE3) assessed as covalent adduct formation at 10 equiv incubated for 1 hr by RP-HPLC based ESI-MS analysis.
Test [5] has as its target T1, 14 kDa phosphohistidine phosphatase (Homo sapiens). The experiment in a line: Covalent inhibition of human PHPT1 expressed in Escherichia coli BL21 (DE3) using pNPP as substrate at 10 equiv preincubated for 60 mins by multimode microplate reader analysis.
Test [6] is filed under the species Homo sapiens. The experiment in a line: Covalent binding affinity to human PHPT1 C71A mutant expressed in Escherichia coli BL21 (DE3) assessed as covalent adduct formation at 10 equiv incubated for 1 hr by RP-HPLC based ESI-MS analysis.
Test [7] addresses T1, 14 kDa phosphohistidine phosphatase (Homo sapiens). The experiment in a line: Covalent inhibition of human PHPT1 expressed in Escherichia coli BL21 (DE3) assessed as increase in protein mass at 10 equiv incubated for 1 hr by RP-HPLC based ESI-MS analysis.
The target is the same in test [8]. The test is described as follows: Covalent inhibition of human PHPT1 expressed in Escherichia coli BL21 (DE3) assessed as inhibition of dephosphorylation of histidine-phosphorylated BSA at 10 equiv preincubated for 1 hr followed by substrate addition and measured for 150 secs by Western blot analysis. The conditions noted are these: time 3750.0 sec.
Test [9] addresses T2, 14 kDa phosphohistidine phosphatase. The experiment in a line: Inhibition of human PHPT1 expressed in Escherichia coli BL21 (DE3) using pNPP as substrate incubated for 1 hr by multimode microplate reader analysis.

For the compound `CCN1C(=O)C=CC1=O` [N-ETHYLMALEIMIDE], the Kinact in [1] was 0.0075 s⁻¹. Further, the Ki in test [2] was found to be 209 µM. The Ratio in [3] amounted to 31 M⁻¹ s⁻¹.

Turning to `C=C(CC)C(=O)c1ccc(OCC(=O)O)c(Cl)c1Cl` [ETHACRYNIC ACID], the outcome in [4] and in [6] was Active. The inhibition result in test [5], in [7] and in test [8] was “Active” in each case. Also, the Kinact in test [1] worked out at 0.00267 s⁻¹. The Ki in [2] stood at 183 µM. Also, the Ratio in [3] is 14.6 M⁻¹ s⁻¹. Further, in [9], inhibition was half-maximal at 18.3 µM (IC50).

For the origin of these results see ChEMBL document CHEMBL5104217, “Identification of a Target Site for Covalent Inhibition of Protein Phosphohistidine Phosphatase 1” (ACS Med Chem Lett, 2022).
